The subject of experiment [1] is Ccm2 ecKO mice. In words: Chronic treatment of Ccm2 ecKO mice, CCM lesions quantified by postmortem MRI. The format is in vivo. The note with it: treated from P5 to 5 months of age, tempol 1 mM in drinking water or cholecalciferol-enhanced chow (+25 IU/g D3). The method, then: Chronic treatment studies of the effects of tempol and cholecalciferol in inducible endothelial-specific Ccm2 knockout mice (Ccm2^f/−; +/Tg(Pdgfb-iCreER^T2), also referred to herein as Ccm2 ecKO mice or endothelial knockout mice, were performed, inter alia, to evaluate the potential of tempol and/or cholecalciferol administration for the treatment of CCM disease (see Chan A C et al., J Clin Invest 121, 1871-1881 (2011) regarding the Ccm2 ecKO mice). 5 days after birth (P5), Ccm2 ecKO mice litters were assigned to a standard chow (HARLAN 2018, 1.5 IU/g D3), a standard chow plus tempol in drinking water (1 mM), or a cholecalciferol-enhanced chow (HARLAN 2018+25 IU/g D3). The chow was provided to the mother of each litter until the mice were weaned at P21. […]
At 5 months of age, mice were sacrificed by exsanguination (blood was collected for later analysis), and subsequent perfusion with saline and then 4% formaldehyde. […] Lesion area and number were quantified by two blinded reviewers using IMAGEJ and OSIRIX software. […]
The results of both reviewers were tabulated. […] FIG. 1B depicts a normalized number of CCM lesions as measured by MRI in Ccm2 ecKO mice. […] FIG. 1C is a graph depicting the number of lesions of various sizes as measured by MRI in Ccm2 ecKO mice. […]

Experiment [2] relates to CDC42. In words: cdc42 activation assay (pulldown, western blot) in HMVEC-D cells. The format is cell-based. The following applies: up to 10 μM, 60 minutes. The method, then: (§1) The timing of effects of cholecalciferol on the endothelium was assessed by evaluating the effect of knockdown of CCM2, and subsequent treatment with cholecalciferol, on a panel of signaling pathways associated with endothelial instability. The signaling pathways assessed included: ADP-ribosylation factor 6 (ARF6), cell division control protein 42 homolog (CDC42), transforming protein RhoA (RHOA), phosphorylation of myosin light chain (pMLC), Ras-related C3 botulinum toxin substrate 1 (RAC1), and Ras-related protein R-Ras (RRAS) (see Broman M T et al., Circ Res 98, 73-80 (2006); Broman M T et al., Trends Cardiovasc Med 17, 151-156 (2007); Eliceiri B P et al., Mol Cell 4, 915-924 (1999); Sawada J et al., Cancer Cell 22, 235-249 (2012); Weis S et al., J Cell Biol 167, 223-229 (2004); Wojciak-Stothard B et al., Vascul Pharmacol 39, 187-199 (2002); and Zhu W et al., Nature 492, 252-255 (2012)). […]
(§2) For RhoA, ARF6, Rac1/cdc42, and R-Ras activation assays, crude total cell lysate were generated and GTP-RhoA, ARF6, Rac1/cdc42, and R-Ras were precipitated with Rhotekin-RBD (EMD MILLIPORE), GGA3-PBD (CELL BIOLABS), PAK-1-PBD (EMD MILLIPORE), and Raf-1 RBD, respectively. […] RhoA, ARF6, Rac1/cdc42, and R-Ras were detected by western blotting with antibodies (RhoA, Rac1, and R-Ras antibodies were from CELL SIGNALING TECHNOLOGY; ARF6 and cad42 antibodies were from EMD MILLIPORE).
In general terms: In western blotting, separated proteins are transferred to a membrane and probed.

Experiment [3] has as its system RAC1. The experiment can be described thus: Rac1 activation assay (pulldown, western blot) in HMVEC-D cells. Type of experiment: cell-based. The note with it: up to 10 μM, 60 minutes. The method, then: as §1, §2
Experiment [4] has as its system pMLC. In words: Phosphorylation of myosin light chain (pMLC) in siCCM2 HMVEC-D cells. The following applies: siCCM2 HMVEC-D monolayers, 100 nM or 10 μM, 60 minutes. Type of experiment: cell-based. The method, then: The timing of effects of cholecalciferol on the endothelium was assessed by evaluating the effect of knockdown of CCM2, and subsequent treatment with cholecalciferol, on a panel of signaling pathways associated with endothelial instability. The signaling pathways assessed included: ADP-ribosylation factor 6 (ARF6), cell division control protein 42 homolog (CDC42), transforming protein RhoA (RHOA), phosphorylation of myosin light chain (pMLC), Ras-related C3 botulinum toxin substrate 1 (RAC1), and Ras-related protein R-Ras (RRAS) (see Broman M T et al., Circ Res 98, 73-80 (2006); Broman M T et al., Trends Cardiovasc Med 17, 151-156 (2007); Eliceiri B P et al., Mol Cell 4, 915-924 (1999); Sawada J et al., Cancer Cell 22, 235-249 (2012); Weis S et al., J Cell Biol 167, 223-229 (2004); Wojciak-Stothard B et al., Vascul Pharmacol 39, 187-199 (2002); and Zhu W et al., Nature 492, 252-255 (2012)).
Wild-type, siCTRL, or siCCM2 treated HMVEC-D cells were incubated with either 100 nM or 10 μM cholecalciferol (TOCRIS BIOSCIENCE), 7-DHC (SIGMA-ALDRICH), or vehicle (0.5% DMSO) for 60 minutes (pMLC, ARF6, RAC, CDC42, RRAS) or 24 hours (RHOA), unless otherwise indicated. After treatment, the cells were washed with ice-cold PBS and lysed in 50 mM Tris pH 7.4, 150 mM NaCl, 10 mM MgCl2, 10% glycerol, 1% NP-40, 1× protease inhibitors, and 1× phosphatase inhibitors.

Experiment [5] relates to RRAS. In words: R-Ras activation assay (pulldown, western blot) in HMVEC-D cells. The format is cell-based. The following applies: up to 10 μM, 60 minutes. On the procedure:
as §1, §2

Experiment [6] has as its system RHOA. In words: RhoA activation assay (GTP-RhoA pulldown, western blot) in siCCM2 HMVEC-D cells. Type of experiment: cell-based. The following applies: siCCM2 HMVEC-D monolayers, 100 nM or 10 μM, 24 hours. The method, then: as §1, §2
Experiment [7] concerns ARF6. The experiment can be described thus: ARF6 activation assay (GTP-ARF6 pulldown, western blot) in siCCM2 HMVEC-D cells. The format is cell-based. The method, then:
as §1, §2

Some results are limits rather than exact numbers.

Regarding `CC1(C)CC(O)CC(C)(C)N1[O]` [tempol, 4-hydroxy-2,2,6,6-tetramethylpiperidine 1-oxyl], the “number of CCM lesions as measured by MRI, compared to standard chow” value in experiment [1] is reported as “approximately half as many lesions”.
As to `C=C1CC[C@H](O)C/C1=C/C=C1\CCC[C@]2(C)[C@@H]([C@H](C)CCCC(C)C)CC[C@@H]12` [cholecalciferol], the “basal activation of CDC42” value in experiment [2] was “nor did treatment of up to 10 μM cholecalciferol appear to basally inhibit activation”. Also, the “basal activation of RAC1” value in experiment [3] is reported as “nor did treatment of up to 10 μM cholecalciferol appear to basally inhibit activation”. For the same molecule, in experiment [4], the “CCM2 knockdown-induced activation of pMLC” value is “inhibited”. For the same molecule, the “number of CCM lesions as measured by MRI, compared to standard chow” value in experiment [1] is “approximately half as many lesions”. For the same molecule, in experiment [5], the “basal activation of RRAS” value is “nor did treatment of up to 10 μM cholecalciferol appear to basally inhibit activation”. The “CCM2 knockdown-induced activation of RHOA” value in experiment [6] is on record as “inhibited”. The “time to inhibition of ARF6 activation” value in experiment [7] (siCCM2 HMVEC-D cells, time course) is at most 5 min. In addition, in experiment [7] (siCCM2 HMVEC-D monolayers, 100 nM or 10 μM, 60 minutes), the “CCM2 knockdown-induced activation of ARF6” value is listed as “inhibited”.

The values above are taken from US9937162B2, “Methods of treating and preventing vascular instability diseases” (THE UNIVERSITY OF UTAH RESEARCH FOUNDATION, priority 2014, dated 2018).
